The text below walks through data of patent US20110230478A1 (Bayer ScienceCrop AG, priority 2008, published 2011).

Molecules are shown by their SMILES.

The first series can be described thus: logP by HPLC on reversed-phase columns (C 18), EEC Directive 79/831 Annex V.A8. Format: physicochemical. Particulars: LC-MS, pH 2.7, 0.1% aqueous formic acid and acetonitrile.
In the case of `COCC(C)Nc1nc(Nc2ccc(NC3CC3)nc2)ncc1Cl` (stereo not drawn) [II-3], the “logP [b]” value is 1.17[b].
For the compound `COCC(C)Nc1nc(Nc2ccc(OC)nc2)ncc1Br` (stereo not drawn) [II-1], the “logP [b]” value was 1.52[b].

Staying with this series, now noted: method marker [a].
For `CS(=O)(=O)c1ccc(Nc2ncc(Cl)c(NC3CCCCC3)n2)cc1` [Example 267], the logP is 2.54[a].

Still in this series, the particulars now being: method marker [a]; footnote not given.
Take `COCC(C)Nc1nc(Nc2ccc(S(=O)(=O)N3CCOCC3)cc2)ncc1Cl` (stereo not drawn) [Example 63]: the logP is 2.18[a].
On the same count and under the same terms, the figure for `CCC(CO)Nc1nc(Nc2ccc(N3CCN(C(=O)OC(C)(C)C)CC3)cc2)ncc1Cl` (stereo not drawn) [Example 23] is 2.02[a]; for `COCC(C)Nc1nc(Nc2cc(OC)cc(OC)c2)ncc1Cl` (stereo not drawn) [Example 14] it is 1.94[a]; for `Cl.OCCNc1nc(Nc2ccccc2)ncc1Cl` [Example 53] it is 0.86[a].
Consider `CCC(CO)Nc1nc(Nc2ccccc2)ncc1Cl` (stereo not drawn) [Example 18], for which the logP was 1.41[a].
Turning to `COc1cc(Nc2ncc(Cl)c(NCCO)n2)cc(OC)c1.Cl` [Example 54], the logP is 1.26[a].
On the same count and under the same terms, the figure for `CN(C)c1nc(Nc2ccc(S(=O)(=O)N(C)C)cc2)ncc1Cl` [Example 27] is 2.49[a].
As to `CC(C)c1ccc(Nc2ncc(Cl)c(NCCO)n2)cc1.Cl` [Example 58], the logP was 1.6[a].
As to `COCCNc1nc(Nc2ccccc2)ncc1Cl` [Example 3], the logP was 1.41[a].
For the compound `CCCCNc1nc(Nc2ccccc2)ncc1Cl` [Example 32], the logP was 2.12[a].

Still in this series, the particulars now being: method marker [b] (compound 257: pH2.7).
Turning to `Brc1cnc(Nc2ccccc2)nc1NC1CCCC1` [Example 253], the logP was 2.47[b].
Same read-out and setting: the figure for `CCC(C)CNc1nc(Nc2ccccc2)ncc1Cl` (stereo not drawn) [Example 276] is 2.37[b].
On the same count and under the same terms, the figure for `CC(=O)Cc1cccc(Nc2ncc(Cl)c(NC3CCCC3)n2)c1` [Example 255] is 2.01[b]; for `CSc1cccc(Nc2ncc(Cl)c(NCC(C)C)n2)c1` [Example 283] it is 2.69[b].
Still for that read-out and setting: the figure for `CNc1cccc(Nc2ncc(Cl)c(NC(C)C)n2)c1` [Example 292] is 1.32[b]; for `CC(=O)c1cccc(Nc2ncc(Cl)c(NC3CCCCC3)n2)c1.Cl` [Example 249] it is 2.53[b].
In the case of `CCN(c1nc(Nc2ccccc2)ncc1Cl)C(C)C` [Example 269], the logP was 3[b].
With `C=C(C)CNc1nc(Nc2ccccc2)ncc1Cl` [Example 288], the logP was 2.62[b].
On to `CC(C)Nc1nc(Nc2ccc(C(=O)N(C)C)cc2)ncc1Br` [Example 245], for which the logP is 1.54[b].
Consider `CC(C)CNc1nc(Nc2ccccc2)ncc1Cl` [Example 279], for which the logP is 2.02[b].
On the same count and under the same terms, the figure for `CCC(CC)Nc1nc(Nc2ccccc2)ncc1Cl` [Example 275] is 2.34[b]; for `CC(C)(C)OC(=O)N1CCN(c2ccc(Nc3ncc(Cl)c(NC4CCCCC4)n3)cc2)CC1` [Example 264] it is 2.95[b]; for `CC(Nc1nc(Nc2ccccc2)ncc1Cl)[Si](C)(C)C` (stereo not drawn) [Example 291] it is 2.66[b].
On the same count and under the same terms, the figure for `CCCNc1nc(Nc2ccccc2)ncc1Cl` [Example 280] is 1.69[b]; for `CC(C)Nc1nc(Nc2cccc(C=O)c2)ncc1Cl` [Example 252] it is 1.86[b]; for `COc1cc(Nc2ncc(Cl)c(NC3CCCCC3)n2)cc(OC)c1` [Example 260] it is 2.77[b].
The same measure, in the same setting: with `COC(C)C(C)Nc1nc(Nc2ccccc2)ncc1Cl` (stereo not drawn) [Example 295] the figure was 2.04[b].

The same series, now with this note: method marker [b]; footnote not given; compound 68 value matches logP (pH 2.3).
With `COCC(C)Nc1nc(Nc2ccc(-c3cscn3)cc2)ncc1Br` (stereo not drawn) [Example 112], the logP is 1.99[b].
Still for that read-out and setting: with `COCC(C)Nc1nc(Nc2ccc(SC)c(Cl)c2)ncc1Br` (stereo not drawn) [Example 111] the figure was 2.99[b]; with `COCC(C)Nc1nc(Nc2ccc(-c3cscn3)cc2)ncc1Cl` (stereo not drawn) [Example 90], 1.87[b]; with `COCC(C)Nc1nc(Nc2ccc3c(c2)OCO3)ncc1Cl` (stereo not drawn) [Example 97], 1.56[b].
Still for that read-out and setting: the figure for `COCC(C)Nc1nc(Nc2ccc3c(c2)CCC3=O)ncc1Cl` (stereo not drawn) [Example 103] is 1.97[b].
For the compound `COCC(C)Nc1nc(Nc2ccc3c(c2)CCN3C(C)=O)ncc1Br` (stereo not drawn) [Example 79], the logP is 1.55[b].
The same measure, in the same setting: the figure for `COCC(C)Nc1nc(Nc2cccc(OC)c2)ncc1Cl` (stereo not drawn) [Example 85] is 1.78[b].
On the same count and under the same terms, the figure for `COCC(C)Nc1nc(Nc2ccc(Cl)c(S(C)(=O)=O)c2)ncc1Br` (stereo not drawn) [Example 76] is 2.23[b].
For the compound `CCOc1cccc(Nc2ncc(Br)c(NC(C)COC)n2)c1` (stereo not drawn) [Example 116], the logP is 2.18[b].
Still for that read-out and setting: with `COCC(C)Nc1nc(Nc2cccc(OC(F)(F)F)c2)ncc1Cl` (stereo not drawn) [Example 87] the figure was 3.14[b]; with `COCC(C)Nc1nc(Nc2ccc3c(c2)OC(F)(F)C(F)(F)O3)ncc1Cl` (stereo not drawn) [Example 92], 3.85[b].
For `COCC(C)Nc1nc(Nc2ccc(F)cc2)ncc1Cl` (stereo not drawn) [Example 69], the logP is 1.8[b].
As for `COCC(C)Nc1nc(Nc2cccc(NC(C)=O)c2)ncc1Br` (stereo not drawn) [Example 80], the logP is 1.11[b].
On the same count and under the same terms, the figure for `COCC(C)Nc1nc(Nc2ccc(N(C)C(C)=O)cc2)ncc1Br` (stereo not drawn) [Example 119] is 1.56[b].

The series is the same for the next values; noted with them: method marker [c].
With `CC(C)Nc1nc(Nc2cccc(C=O)c2)ncc1Cl` [Example 252], the logP is 3.06[c];.
Take `COC(C)C(C)Nc1nc(Nc2ccccc2)ncc1Cl` (stereo not drawn) [Example 295]: the logP is 3.64[c];.

Staying with this series, now noted: pH 2.3, 0.1% aqueous phosphoric acid and acetonitrile.
Take `COCC(C)Nc1nc(Nc2ccc(OC)nc2)ncc1Br` (stereo not drawn) [II-1]: the “logP [a]” value was 1.53[a];.
`COCC(C)Nc1nc(Nc2ccc(O)nc2)ncc1Br` (stereo not drawn) [II-4]: the “logP [a]” value is 0.58[a].

The series is the same for the next values; noted with them: pH 2.3, logP [a].
Compound `N#CCNc1nc(Cl)ncc1Cl` [Example V-8, [(2,5-dichloropyrimidin-4-yl)amino]acetonitrile] came in with a chromatographic logP of 1.27.
The same measure, in the same setting: with `COCC(C)Nc1nc(Cl)ncc1Cl` (stereo not drawn) [Example V-1, 2,5-Dichloro-N-(3-methoxypropan-2-yl)pyrimidine-4-amine] the figure was 2.1; with `CCNc1nc(Cl)ncc1Cl` [Example V-20, 2,5-dichloro-N-ethylpyrimidine-4-amine], 1.93.

Staying with this series, now noted: reversed-phase HPLC column (C 18), pH 2.3, pH 2.3, 0.1% aqueous phosphoric acid and acetonitrile; read-out: logP [a].
Regarding `CC(C)(C)CNc1nc(Cl)ncc1Cl` [Example V-32, 2,5-dichloro-N-(2,2-dimethylpropyl)pyrimidine-4-amine], the chromatographic logP worked out at 3.44.
The same measure, in the same setting: the figure for `CCN(C)S(=O)(=O)Cc1cccc([N+](=O)[O-])c1` [IV-1, N-Ethyl-N-methyl-1-(3-nitrophenyl)methanesulphonamide] is 2.05.
Consider `CCC(=O)N(C)c1cccc(N)c1` [IV-9, N-(3-aminophenyl)-N-methylpropanamide], for which the chromatographic logP was 0.63.
The same measure, in the same setting: with `CC(C)(C)Nc1nc(Cl)ncc1Cl` [Example V-17, N-t-butyl-2,5-dichloropyrimidine-4-amine] the figure was 3.22; with `O=[N+]([O-])c1cccc(CS(=O)(=O)NCc2ccccc2)c1` [IV-4, N-(benzyl)-1-(3-nitrophenyl)methanesulphonamide], 2.43.
Still for that read-out and setting: with `OCCNc1nc(Cl)ncc1Cl` [Example V-5, 2,5-dichloro-N-(2-hydroxyethyl)pyrimidine-4-amine] the figure was 0.97; with `CCCN(C)c1nc(Cl)ncc1Cl` [Example V-25, 2,5-dichloro-N-methyl-N-propylpyrimidine-4-amine], 3.31.

Still in this series, the particulars now being: values marked [a]; pH 2.3.
`CSc1cccc(Nc2ncc(Cl)c(N(C)C(C)C)n2)c1` [Example 219]: the logP is 3.45[a];.

Staying with this series, now noted: values marked [b]; footnote not given.
For the compound `CC(C)Nc1nc(Nc2ccc(S(C)(=O)=O)cc2)ncc1Cl` [Example 186], the logP is 1.86[b].
On the same count and under the same terms, the figure for `CC(C)Nc1nc(Nc2ccc(O)cc2)ncc1Cl` [Example 213] is 1.24[b].
Same read-out and setting: the figure for `CCNc1nc(Nc2ccccc2)ncc1Cl` [Example 240] is 1.38[b]; for `COCC(C)Nc1nc(Nc2ccc(C(=O)NC(C)(C)C)cc2)ncc1Cl` (racemic) [Example 137] it is 2.06[b]; for `CC(=O)Nc1ccc(Nc2ncc(Cl)c(NC(C)C)n2)cc1Cl` [Example 190] it is 1.61[b].
The same measure, in the same setting: with `COCC(C)Nc1nc(Nc2ccc(C(=O)Nc3ccccc3)cc2)ncc1Cl` (racemic) [Example 141] the figure was 1.8[b]; with `COCC(C)Nc1nc(Nc2ccc(S(C)(=O)=O)cc2)ncc1Cl` (racemic) [Example 145], 1.85[b]; with `COCC(C)Nc1nc(Nc2cccc(NC(=O)C(C)(C)CF)c2)ncc1Cl` (stereo not drawn) [Example 166], 1.83[b].
In the case of `COc1cc(Nc2ncc(Cl)c(NC(C)C)n2)ccc1NC(C)=O` [Example 181], the logP is 1.44[b].
Same read-out and setting: with `CC(C)Nc1nc(Nc2ccc3[nH]c(=O)oc3c2)ncc1Cl` [Example 205] the figure was 1.44[b]; with `CNC(=O)c1ccc(Nc2ncc(Br)c(NC(C)COC)n2)cc1` (racemic) [Example 127], 1.46[b].
The same measure, in the same setting: with `CNC(=O)c1cccc(Nc2ncc(Cl)c(NC(C)COC)n2)c1` (racemic) [Example 142] the figure was 1.32[b]; with `CC(C)Nc1nc(Nc2ccc(NC(=O)C3(C)CC3)cc2)ncc1Cl` [Example 194], 1.71[b]; with `CCNc1nc(Nc2cccc(SC)c2)ncc1Cl` [Example 238], 1.92[b].
On the same count and under the same terms, with `COCC(C)Nc1nc(Nc2ccc(O)c(F)c2)ncc1Cl` (stereo not drawn) [Example 160] the figure was 1.34[b].
In the case of `CC(=O)N(C)c1ccc(Nc2ncc(Cl)c(NC(C)C)n2)cc1` [Example 192], the logP was 1.51[b].
Take `COCC(C)Nc1nc(Nc2ccc(O)c(C(C)=O)c2)ncc1Cl` (stereo not drawn) [Example 159]: the logP was 1.68[b].

The series is the same for the next values; noted with them: values marked [c]; footnote not given.
For the compound `CCNc1nc(Nc2ccccc2)ncc1Cl` [Example 240], the logP was 3.03[c];.
With `CC(C)Nc1nc(Nc2cccc(CC#N)c2)ncc1Cl` [Example 236], the logP is 1.69[c].
On to `CCNc1nc(Nc2cccc(SC)c2)ncc1Cl` [Example 238], for which the logP is 3.46[c];.
Same read-out and setting: the figure for `CSc1cccc(Nc2ncc(Cl)c(N(C)C(C)C)n2)c1` [Example 219] is 4.64[c].

The same series, now with this note: values marked [d]; footnote not given.
As to `CC(C)CC(C)N(C)c1nc(Nc2ccccc2)ncc1Br` (stereo not drawn) [Example 233], the logP was 3.39[d].
